As a reminder, the EC50 is the concentration that produces a half-maximal response.

≈ marks a conversion by molar mass, not a printed value. Like-named read-outs stand apart in the source and are kept apart here. Where only a bound is given, the exact number is not on record here.

Results on twelve compounds are retold here after article PMC4281105 (Journal of medicinal chemistry, 2014).

One data set relates to recRSV-luciferase. The data set is described as follows: recRSV-luciferase assay. It counts as cell-based, respiratory syncytial virus. Conditions: luciferase readout.
The test system of another data set is hRSV strain Long. Briefly: hRSV CPE assay. It is filed as cell-based, human respiratory syncytial virus.
Data set [1] addresses calcium channel, L-type, dihydropyridine (Rattus norvegicus, UniProt P22002). The data set is described as follows: Panlabs 214600 radioligand binding. The conditions noted are these: read-out: % Inh.
Data set [2] deals with calcium channel, L-type, benzothiazepine (Rattus norvegicus, UniProt P22002). The data set is described as follows: biochemical. Conditions: read-out: % Inh.
The next data set has as its system RSV. The data set is described as follows: viral titer. It is filed as cell-based, human respiratory syncytial virus. The conditions noted are these: for log reduction at 10 µM: human respiratory syncytial virus, read-out: viral titer reduction at 10 µM.
A further data set has as its system recMeV-luciferase. The data set is described as follows: recMeV-luciferase assay. It is filed as cell-based, measles virus. Conditions: luciferase readout, reporter interference control.
Test in data set [3]: not given
The source holds these as a separate data set.

The subject of data set [4] is Fa2N-4 immortalized human hepatocytes. Conditions: read-out: hepatocyte toxicity LC50.
The conditions of data set [5]: for Pe, PAMPA permeability: PBS, no additives.
The mark [6] stands for this setting: human respiratory syncytial virus, HEp-2, read-out: RSV CPE potency ± standard deviation EC50, HEp-2 cells, hRSV strain Long, 10-point dose response.

calcium channel, L-type, benzothiazepine, sequence (P22002 whole entry): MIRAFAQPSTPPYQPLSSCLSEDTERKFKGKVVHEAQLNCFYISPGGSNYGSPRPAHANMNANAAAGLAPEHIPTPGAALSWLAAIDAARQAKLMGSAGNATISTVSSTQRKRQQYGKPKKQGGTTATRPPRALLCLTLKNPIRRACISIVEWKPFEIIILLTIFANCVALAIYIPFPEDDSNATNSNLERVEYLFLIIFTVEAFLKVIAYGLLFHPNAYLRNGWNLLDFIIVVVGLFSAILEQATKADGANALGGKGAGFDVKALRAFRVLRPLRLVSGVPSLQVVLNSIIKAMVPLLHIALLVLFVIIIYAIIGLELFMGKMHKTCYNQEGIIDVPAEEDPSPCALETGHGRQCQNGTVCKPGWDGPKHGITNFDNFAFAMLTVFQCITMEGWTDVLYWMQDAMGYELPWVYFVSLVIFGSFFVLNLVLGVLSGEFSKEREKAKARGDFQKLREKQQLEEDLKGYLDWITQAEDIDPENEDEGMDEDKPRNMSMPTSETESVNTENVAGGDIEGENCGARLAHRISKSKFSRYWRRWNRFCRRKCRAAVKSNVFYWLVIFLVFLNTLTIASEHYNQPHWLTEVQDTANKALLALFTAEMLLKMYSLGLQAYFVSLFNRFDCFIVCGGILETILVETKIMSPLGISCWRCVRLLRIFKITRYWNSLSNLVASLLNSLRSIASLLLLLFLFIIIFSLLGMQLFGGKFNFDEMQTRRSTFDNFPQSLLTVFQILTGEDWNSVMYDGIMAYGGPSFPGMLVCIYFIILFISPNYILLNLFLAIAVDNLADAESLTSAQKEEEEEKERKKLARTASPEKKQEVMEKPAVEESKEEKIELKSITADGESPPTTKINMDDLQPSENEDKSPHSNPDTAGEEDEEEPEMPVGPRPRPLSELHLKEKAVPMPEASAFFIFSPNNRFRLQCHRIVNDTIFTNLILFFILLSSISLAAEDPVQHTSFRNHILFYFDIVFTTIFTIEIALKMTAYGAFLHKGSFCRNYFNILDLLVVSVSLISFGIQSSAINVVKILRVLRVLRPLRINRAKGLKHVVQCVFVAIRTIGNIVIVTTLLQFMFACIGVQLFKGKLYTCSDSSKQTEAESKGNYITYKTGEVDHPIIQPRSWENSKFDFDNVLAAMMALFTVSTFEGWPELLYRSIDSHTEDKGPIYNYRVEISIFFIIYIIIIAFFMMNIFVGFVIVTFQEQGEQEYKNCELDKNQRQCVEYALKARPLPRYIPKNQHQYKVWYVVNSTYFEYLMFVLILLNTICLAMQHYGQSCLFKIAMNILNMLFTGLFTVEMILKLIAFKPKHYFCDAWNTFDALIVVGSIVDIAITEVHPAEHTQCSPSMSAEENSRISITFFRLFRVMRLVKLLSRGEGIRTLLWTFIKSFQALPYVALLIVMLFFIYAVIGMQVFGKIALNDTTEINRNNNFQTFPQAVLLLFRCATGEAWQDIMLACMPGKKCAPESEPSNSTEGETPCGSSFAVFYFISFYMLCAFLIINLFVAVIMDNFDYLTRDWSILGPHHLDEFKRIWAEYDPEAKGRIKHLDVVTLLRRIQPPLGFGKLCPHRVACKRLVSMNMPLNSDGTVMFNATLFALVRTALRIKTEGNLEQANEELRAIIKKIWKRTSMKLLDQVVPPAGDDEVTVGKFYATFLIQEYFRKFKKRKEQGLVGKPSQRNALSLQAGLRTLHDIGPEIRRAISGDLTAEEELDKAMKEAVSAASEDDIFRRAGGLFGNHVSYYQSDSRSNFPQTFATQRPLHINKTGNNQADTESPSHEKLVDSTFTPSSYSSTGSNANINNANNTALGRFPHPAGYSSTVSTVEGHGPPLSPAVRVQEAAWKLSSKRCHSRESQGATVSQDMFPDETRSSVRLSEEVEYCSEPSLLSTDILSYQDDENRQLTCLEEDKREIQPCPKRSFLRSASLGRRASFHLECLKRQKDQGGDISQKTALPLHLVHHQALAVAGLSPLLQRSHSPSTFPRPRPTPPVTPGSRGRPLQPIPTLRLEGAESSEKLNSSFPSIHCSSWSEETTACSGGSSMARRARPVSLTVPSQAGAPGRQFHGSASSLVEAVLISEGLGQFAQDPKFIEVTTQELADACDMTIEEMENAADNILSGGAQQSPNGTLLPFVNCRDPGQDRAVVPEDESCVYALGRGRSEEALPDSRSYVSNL
calcium channel, L-type, dihydropyridine, sequence (P22002 whole entry): as above

`COCCCNC(=O)c1ccc(Cn2c(=O)c3ccccc3n(Cc3ccc(C(C)C)cc3)c2=O)cc1` [Compound 19, 4-((1-(4-isopropylbenzyl)-2,4-dioxo-1,2-dihydroquinazolin-3(4H)-yl)methyl)-N-(3-methoxypropyl)benzamide]: the “inhibition of recRSV-luciferase” value in the data set with recRSV-luciferase was “efficiently inhibited”. In addition, the EC50 was 300 ± 30 nM in the data set with hRSV strain Long (setting [6]) and 300 to 500 nM with hRSV strain Long (human respiratory syncytial virus, RSV CPE, as given in abstract). For the same compound, the results for the inhibition at 10 µM in data set [1] and in data set [2] were 70% and 52%, respectively. The log reduction at 10 µM in the data set with RSV worked out at 6.7. Further, in the data set with recMeV-luciferase, the “activity against recMeV-luciferase” value is “inactive”.
Turning to `COCCCNC(=O)c1ccc(Cn2c(=O)c3ccccc3n(Cc3cccnc3)c2=O)cc1` [Compound 23, 4-((2,4-Dioxo-1-(pyridin-3-ylmethyl)-1,2-dihydroquinazolin-3(4H)-yl)methyl)-N-(3-methoxypropyl)benzamide], the EC50 in the data set with hRSV strain Long (setting [6]) is over 50000 nM. In addition, the log reduction at 10 µM in the data set with RSV worked out at 0.9.
On the same counts, the results for `COCCCCNC(=O)c1ccc(Cn2c(=O)c3ccccc3n(Cc3ccc(C)cc3)c2=O)cc1` [Compound 27, N-(4-Methoxybutyl)-4-((1-(4-methylbenzyl)-2,4-dioxo-1,2-dihydroquinazolin-3(4H)-yl)methyl)benzamide] are 800 ± 50 nM and 2.1.
In the same order, the values of `Cc1ccc(Cn2c(=O)n(Cc3ccc(C(=O)NCC4COC4)cc3)c(=O)c3ccccc32)cc1` [Compound 29, 4-((1-(4-Methylbenzyl)-2,4-dioxo-1,2-dihydroquinazolin-3(4H)-yl)methyl)-N-(oxetan-3-ylmethyl)benzamide] are 700 ± 100 nM and 5.1.
For `Cc1ccc(Cn2c(=O)n(Cc3ccc(C(=O)NCC4CCC4)cc3)c(=O)c3ccccc32)cc1` [Compound 30, N-(Cyclobutylmethyl)-4-((1-(4-methylbenzyl)-2,4-dioxo-1,2-dihydroquinazolin-3(4H)-yl)methyl)benzamide], in the data set with hRSV strain Long (setting [6]), the EC50 was 1000 ± 80 nM. Further, the log reduction at 10 µM in the data set on RSV was found to be 1.2.
On the same counts, the results for `Cc1ccc(Cn2c(=O)n(Cc3ccc(C(=O)NC(C)(C)C)cc3)c(=O)c3ccccc32)cc1` [Compound 36, N-(tert-Butyl)-4-((1-(4-methylbenzyl)-2,4-dioxo-1,2-dihydroquinazolin-3(4H)-yl)methyl)benzamide] are 700 ± 30 nM and 5.5.
For `Cc1ccc(Cn2c(=O)n(Cc3ccc(C(=O)Nc4ccncc4)cc3)c(=O)c3ccccc32)cc1` [Compound 42, 4-((1-(4-Methylbenzyl)-2,4-dioxo-1,2-dihydroquinazolin-3(4H)-yl)methyl)-N-(pyridin-4-yl)benzamide], the EC50 in the data set with hRSV strain Long (setting [6]) worked out at 1000 ± 40 nM. Besides, the log reduction at 10 µM in the data set with RSV turned out to be 3.5.
Regarding `O=C(NCC1COC1)c1ccc(Cn2c(=O)c3ccccc3n(Cc3ccc([N+](=O)[O-])cc3)c2=O)cc1` [Compound 43, 4-((1-(4-Nitrobenzyl)-2,4-dioxo-1,2-dihydroquinazolin-3(4H)-yl)-methyl)-N-(oxetan-3-ylmethyl)benzamide], in the data set on hRSV strain Long (setting [6]), the EC50 was determined as 1300 ± 50 nM. Further, the “increase in capacity to reduce viral titer over hit 2” value with RSV (10 µM) was at least 2 log. Besides, the log reduction at 10 µM in the data set on RSV is over 6.2.
Consider `CC(C)c1ccc(Cn2c(=O)n(Cc3ccc(C(=O)NCC4COC4)cc3)c(=O)c3ccccc32)cc1` [Compound 44, 4-((1-(4-Isopropylbenzyl)-2,4-dioxo-1,2-dihydroquinazolin-3(4H)-yl)methyl)-N-(oxetan-3-ylmethyl)benzamide], for which the EC50 in the data set with hRSV strain Long (setting [6]) worked out at 400 ± 10 nM. For the same compound, the log reduction at 10 µM with RSV amounted to 5.8.
Take `CN(C)c1ccc(Cn2c(=O)n(Cc3ccc(C(=O)NCC4COC4)cc3)c(=O)c3ccccc32)cc1` [Compound 46, 4-((1-(4-(dimethylamino)benzyl)-2,4-dioxo-1,2-dihydroquinazolin-3(4H)-yl)methyl)-N-(oxetan-3-ylmethyl)-benzamide]: the “aqueous stability, 1:1 PBS/ACN” value (percent parent remaining after 48 h in 1:1 PBS and acetonitrile) is listed as 100%. The “aqueous stability, PBS” value (percent parent remaining after 48 h in PBS) was 90.2%. Besides, the “selectivity index (CC50/EC50)” value with hRSV strain Long (HEp-2 CC50 / RSV CPE EC50) came to 41.8. Further, the EC50 in the data set on hRSV strain Long (read-out: RSV CPE potency ± standard deviation EC50, HEp-2 cells, hRSV strain Long, 10-point dose response) turned out to be 1100 ± 200 nM. Besides, the “viral titer reduction at 10 µM” value in the data set on RSV (compound at 10 µM) is recorded as over 6.2 log. In addition, in [3] (kinetic solubility in 1× PBS, pH 7.4), the “solubility, PBS” value was found to be 11.2 µM (≈ 5.58 µg/mL). Further, the “solubility, media” value in [3] (kinetic solubility in CPE assay media (DMEM/F12, Pen/Strep/Glutamine, 2% heat inactivated FBS)) is 18.5 µM (≈ 9.22 µg/mL). Besides, the CC50 in data set [4] is over 50 µM. Also, in data set [5] (at each of 3 pH levels), the “passive permeability in words” value is “Moderate to good”. For the same compound, the “Pe, PAMPA permeability” value is 0.00078 cm/s in data set [5] (donor pH 5.0, acceptor pH 7.4); 0.000686 cm/s in data set [5] (donor pH 6.2, acceptor pH 7.4); 0.000514 cm/s in [5] (donor pH 7.4, acceptor pH 7.4).
In the case of `CC(C)(C)c1ccc(Cn2c(=O)n(Cc3ccc(C(=O)NCC4COC4)cc3)c(=O)c3ccccc32)cc1` [Compound 47, 4-((1-(4-tert-Butylbenzyl)-2,4-dioxo-1,2-dihydroquinazolin-3(4H)-yl)methyl)-N-(oxetan-3-ylmethyl)benzamide], the EC50 with hRSV strain Long (setting [6]) is 1600 ± 80 nM. Moreover, in the data set with RSV, the log reduction at 10 µM worked out at 3.4.
In the same order, the values of `CC(C)c1ccc(Cn2c(=O)n(Cc3ccc(C(=O)NCc4ccco4)cc3)c(=O)c3ccccc32)cc1` [Compound 48, N-(Furan-2-ylmethyl)-4-((1-(4-isopropylbenzyl)-2,4-dioxo-1,2-dihydroquinazolin-3(4H)-yl)methyl)benzamide] are 1200 ± 100 nM and 2.8.
